Test results reported in publication PMC3548978 (Analytical and bioanalytical chemistry, 2012).

Columns and labels:
Assay type in all cases: biochemical
p300 = p300 (Homo sapiens, UniProt Q09472); test: radioisotope […]Ac-CoA HAT assay, […] probe, […] activity lost; details: read-out: % activity lost at 50 μM
PCAF [1] = target: T1, PCAF (Homo sapiens, UniProt Q92831); test: radioisotope […]Ac-CoA HAT assay, […] probe
Tip60 = Tip60 (Homo sapiens, UniProt Q92993); test: CPM fluorescent HAT assay with H4-20 and Ac-CoA
Chain of Tip60 (Q92993 whole entry): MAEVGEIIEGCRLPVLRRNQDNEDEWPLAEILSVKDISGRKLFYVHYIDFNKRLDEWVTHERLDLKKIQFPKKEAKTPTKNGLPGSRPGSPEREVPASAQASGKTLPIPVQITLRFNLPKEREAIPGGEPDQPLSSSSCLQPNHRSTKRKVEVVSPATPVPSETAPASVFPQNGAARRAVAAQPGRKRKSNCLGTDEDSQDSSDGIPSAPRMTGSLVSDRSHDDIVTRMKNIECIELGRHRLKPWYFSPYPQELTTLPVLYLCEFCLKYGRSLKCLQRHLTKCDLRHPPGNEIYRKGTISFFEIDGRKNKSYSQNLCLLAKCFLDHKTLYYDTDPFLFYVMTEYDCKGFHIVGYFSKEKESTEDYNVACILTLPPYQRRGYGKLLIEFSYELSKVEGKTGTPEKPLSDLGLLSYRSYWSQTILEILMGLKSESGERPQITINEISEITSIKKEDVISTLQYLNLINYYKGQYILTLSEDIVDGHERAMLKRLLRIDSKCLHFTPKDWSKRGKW

PCAF [2] = target: T1, PCAF; test: CPM fluorescent HAT assay with H3-20 and Ac-CoA

T1 sequence (Q92831 493-658): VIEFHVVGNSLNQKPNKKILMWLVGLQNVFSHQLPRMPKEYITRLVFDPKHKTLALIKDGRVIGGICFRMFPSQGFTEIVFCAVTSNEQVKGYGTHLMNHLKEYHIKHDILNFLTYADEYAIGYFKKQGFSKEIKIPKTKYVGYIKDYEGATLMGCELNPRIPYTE
Chain of p300 (Q09472 2-2414): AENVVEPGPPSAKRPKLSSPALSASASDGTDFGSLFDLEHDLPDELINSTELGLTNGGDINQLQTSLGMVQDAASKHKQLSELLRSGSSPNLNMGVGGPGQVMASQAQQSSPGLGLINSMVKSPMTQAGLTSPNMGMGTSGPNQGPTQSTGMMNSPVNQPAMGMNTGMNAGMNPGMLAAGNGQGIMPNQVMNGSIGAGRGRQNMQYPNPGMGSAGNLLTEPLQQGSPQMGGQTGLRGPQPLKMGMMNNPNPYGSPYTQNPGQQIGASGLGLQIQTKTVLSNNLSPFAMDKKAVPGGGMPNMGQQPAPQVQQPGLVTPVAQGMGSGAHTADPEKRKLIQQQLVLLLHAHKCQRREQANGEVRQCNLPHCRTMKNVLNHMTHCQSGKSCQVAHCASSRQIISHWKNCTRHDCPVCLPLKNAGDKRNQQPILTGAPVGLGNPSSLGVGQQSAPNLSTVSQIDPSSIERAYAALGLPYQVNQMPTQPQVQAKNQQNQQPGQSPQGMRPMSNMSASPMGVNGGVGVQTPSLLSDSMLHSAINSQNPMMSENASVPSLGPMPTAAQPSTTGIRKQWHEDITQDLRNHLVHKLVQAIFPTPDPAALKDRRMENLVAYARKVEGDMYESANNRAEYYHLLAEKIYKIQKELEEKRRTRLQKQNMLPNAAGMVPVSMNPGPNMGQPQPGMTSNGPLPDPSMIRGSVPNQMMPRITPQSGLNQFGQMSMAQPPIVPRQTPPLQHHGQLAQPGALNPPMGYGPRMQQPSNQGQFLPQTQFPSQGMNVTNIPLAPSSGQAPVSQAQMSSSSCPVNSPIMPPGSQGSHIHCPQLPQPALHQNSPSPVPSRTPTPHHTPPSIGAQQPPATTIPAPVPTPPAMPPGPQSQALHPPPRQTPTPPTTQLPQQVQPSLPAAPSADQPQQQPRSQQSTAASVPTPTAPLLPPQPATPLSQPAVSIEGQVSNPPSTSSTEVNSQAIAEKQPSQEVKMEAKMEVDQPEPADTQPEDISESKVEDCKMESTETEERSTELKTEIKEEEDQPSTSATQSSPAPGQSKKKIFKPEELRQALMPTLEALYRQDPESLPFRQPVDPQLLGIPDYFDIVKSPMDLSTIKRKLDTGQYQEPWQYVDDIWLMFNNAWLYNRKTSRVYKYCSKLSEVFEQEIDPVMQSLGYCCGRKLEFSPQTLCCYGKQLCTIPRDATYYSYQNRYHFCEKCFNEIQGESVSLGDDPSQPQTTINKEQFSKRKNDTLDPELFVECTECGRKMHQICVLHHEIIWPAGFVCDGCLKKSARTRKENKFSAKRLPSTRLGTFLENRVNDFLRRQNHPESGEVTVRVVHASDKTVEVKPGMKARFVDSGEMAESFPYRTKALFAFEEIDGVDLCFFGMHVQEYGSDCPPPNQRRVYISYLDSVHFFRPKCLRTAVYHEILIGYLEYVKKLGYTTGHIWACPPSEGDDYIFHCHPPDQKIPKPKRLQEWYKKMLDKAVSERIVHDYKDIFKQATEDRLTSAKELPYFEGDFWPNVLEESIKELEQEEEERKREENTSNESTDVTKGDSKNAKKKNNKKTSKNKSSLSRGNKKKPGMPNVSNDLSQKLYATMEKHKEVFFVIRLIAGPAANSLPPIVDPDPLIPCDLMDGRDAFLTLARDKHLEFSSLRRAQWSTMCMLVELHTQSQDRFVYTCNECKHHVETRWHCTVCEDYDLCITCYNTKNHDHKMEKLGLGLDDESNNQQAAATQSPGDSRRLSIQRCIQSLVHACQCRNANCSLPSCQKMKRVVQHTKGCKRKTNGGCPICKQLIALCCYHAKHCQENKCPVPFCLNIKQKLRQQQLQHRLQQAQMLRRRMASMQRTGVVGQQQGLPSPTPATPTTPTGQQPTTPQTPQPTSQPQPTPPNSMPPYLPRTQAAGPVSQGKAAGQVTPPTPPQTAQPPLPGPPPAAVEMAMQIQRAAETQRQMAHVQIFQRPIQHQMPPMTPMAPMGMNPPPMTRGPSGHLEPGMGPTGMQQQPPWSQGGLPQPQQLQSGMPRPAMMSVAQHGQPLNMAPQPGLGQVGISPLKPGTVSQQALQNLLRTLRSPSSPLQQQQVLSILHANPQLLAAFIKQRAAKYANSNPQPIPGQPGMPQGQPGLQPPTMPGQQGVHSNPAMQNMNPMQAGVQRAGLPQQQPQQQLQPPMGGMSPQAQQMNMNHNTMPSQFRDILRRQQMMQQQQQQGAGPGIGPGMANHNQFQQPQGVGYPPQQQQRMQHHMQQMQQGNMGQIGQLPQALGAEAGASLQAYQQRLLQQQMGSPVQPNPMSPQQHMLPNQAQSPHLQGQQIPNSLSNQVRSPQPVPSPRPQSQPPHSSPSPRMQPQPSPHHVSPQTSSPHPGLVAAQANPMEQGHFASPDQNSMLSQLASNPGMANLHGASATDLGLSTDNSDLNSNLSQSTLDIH

Row | IC50 (Tip60) | IC50 (PCAF [2]) | SMILES | inhibition at 50 µM (p300) | radioisotope [14C]Ac-CoA HAT assay, 50 μM probe (PCAF [1])
1 |  |  | O=C1C=CC(=O)N1c1ccc2ccc3cccc4ccc1c2c34 [P28] | > 90% | 
2 |  |  | CCN(CC)c1ccc2c(C)c(-c3ccc(N4C(=O)C=CC4=O)cc3)c(=O)oc2c1 [CPM] | > 90% | Several compounds (e.g. CPM and P28) also considerably inhibited the activity of PCAF.
3 | 26 µM | 96 µM | CC(=O)N[C@@H](CCCCNC(=O)CSCCNC(=O)CCNC(=O)[C@H](O)C(C)(C)COP(=O)(O)OP(=O)(O)OC[C@H]1O[C@@H](n2cnc3c(N)ncnc32)[C@H](O)[C@@H]1OP(=O)(O)O)C(N)=O [Lys-CoA] |  | 
